# Results reported in the supplement of paper PMC6045584.
# ± gives the standard deviation of the averaged measurements.
# Columns and labels:
# ABT-737 = compound: CN(C)CC[C@H](CSc1ccccc1)Nc1ccc(S(=O)(=O)NC(=O)c2ccc(N3CCN(Cc4ccccc4-c4ccc(Cl)cc4)CC3)cc2)cc1[N+](=O)[O-] [ABT-737]; test: surviving fraction relative to DMSO-only wells; higher = less growth inhibition; conditions: exposure time: 5 days
# Method in brief: (§1)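 Surviving fraction is CellTiter-Glo luminescence divided by the median of wells given DMSO only. For this, log-phase tumour cell lines went into 384-well plates at 250–500 cells per well and, 24 hours later, into five days of continuous inhibitor exposure at 0.5, 1, 5, 10, 50, 100, 500 and 1000 nM. Lines were screened three times and retained only if replicate Pearson r >0.7 and median Z' >0.3.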
# 2-METHOXYESTRADIOL = compound: COc1cc2c(cc1O)CC[C@@H]1[C@@H]2CC[C@]2(C)[C@@H](O)CC[C@@H]12 [2-METHOXYESTRADIOL]; test: as above; conditions: exposure time: 5 days
# Method in brief: as §1
Test System,surviving fraction (ABT-737; 0.5 nM),surviving fraction (ABT-737; 1 nM),surviving fraction (ABT-737; 5 nM),surviving fraction (ABT-737; 10 nM),surviving fraction (ABT-737; 50 nM),surviving fraction (ABT-737; 100 nM),surviving fraction (ABT-737; 500 nM),surviving fraction (ABT-737; 1000 nM),surviving fraction (2-METHOXYESTRADIOL; 0.5 nM),surviving fraction (2-METHOXYESTRADIOL; 1 nM),surviving fraction (2-METHOXYESTRADIOL; 5 nM),surviving fraction (2-METHOXYESTRADIOL; 10 nM),surviving fraction (2-METHOXYESTRADIOL; 50 nM),surviving fraction (2-METHOXYESTRADIOL; 100 nM),surviving fraction (2-METHOXYESTRADIOL; 500 nM),surviving fraction (2-METHOXYESTRADIOL; 1000 nM)
22RV1 PROSTATE,0.997 ± 0.07,1.13 ± 0.22,1.03 ± 0.063,0.995 ± 0.079,1.07 ± 0.086,1.03 ± 0.13,1.1 ± 0.042,0.96 ± 0.097,1.01 ± 0.057,1.09 ± 0.17,1.04 ± 0.07,1.07 ± 0.15,1.03 ± 0.073,0.903 ± 0.16,0.791 ± 0.18,0.646 ± 0.068
93VU HEADNECK,1.146 ± 0.0083,1.09 ± 0.057,1.21 ± 0.19,1.16 ± 0.031,1.23 ± 0.069,1.17 ± 0.09,1.12 ± 0.09,1.04 ± 0.074,0.864 ± 0.13,0.829 ± 0.072,1.07 ± 0.096,1.14 ± 0.062,1.09 ± 0.058,0.921 ± 0.017,0.741 ± 0.049,0.788 ± 0.034
143B BONE,1.08 ± 0.042,1.09 ± 0.027,1.14 ± 0.092,1.11 ± 0.071,1.13 ± 0.054,1.115 ± 0.0057,1.12 ± 0.037,1.14 ± 0.064,1.04 ± 0.049,1.06 ± 0.054,1.1 ± 0.071,1.09 ± 0.073,1.08 ± 0.071,1.09 ± 0.046,0.536 ± 0.069,0.159 ± 0.016
A549 LUNG,1.06 ± 0.012,1.05 ± 0.022,1.07 ± 0.023,1.06 ± 0.03,1.07 ± 0.039,1.09 ± 0.039,1.12 ± 0.044,1.05 ± 0.053,0.991 ± 0.016,0.9623 ± 0.0067,0.983 ± 0.018,0.945 ± 0.021,1.02 ± 0.043,1.05 ± 0.015,0.992 ± 0.025,0.544 ± 0.028
ASKA SYNOVIAL,1.15 ± 0.031,1.19 ± 0.044,1.2 ± 0.027,1.16 ± 0.047,1.1 ± 0.05,1.11 ± 0.076,0.914 ± 0.084,0.79 ± 0.066,1.07 ± 0.086,1.08 ± 0.068,1.05 ± 0.054,1.07 ± 0.054,1.1 ± 0.049,1.03 ± 0.066,0.503 ± 0.039,0.353 ± 0.015
BT20 BREAST,1.2 ± 0.061,1.19 ± 0.089,1.15 ± 0.06,1.26 ± 0.06,1.14 ± 0.14,1.18 ± 0.13,1.14 ± 0.043,1.07 ± 0.064,1.08 ± 0.068,1.09 ± 0.062,1.07 ± 0.082,1.05 ± 0.076,1.24 ± 0.14,1.11 ± 0.067,1.13 ± 0.044,0.662 ± 0.048
BT549 BREAST,0.996 ± 0.018,0.867 ± 0.047,1.12 ± 0.075,0.782 ± 0.043,1.12 ± 0.029,0.771 ± 0.095,1.04 ± 0.16,0.841 ± 0.097,0.974 ± 0.087,1.05 ± 0.1,1.05 ± 0.12,1.02 ± 0.024,0.968 ± 0.17,1.08 ± 0.14,0.53 ± 0.092,0.106 ± 0.044
C33A CERVIX,0.932 ± 0.1,0.973 ± 0.088,1.08 ± 0.013,1.08 ± 0.12,1.02 ± 0.14,1.1 ± 0.09,0.927 ± 0.11,1.04 ± 0.15,0.689 ± 0.038,0.772 ± 0.04,0.918 ± 0.1,1.03 ± 0.055,0.965 ± 0.031,0.964 ± 0.055,0.482 ± 0.087,0.595 ± 0.028
CADOES1 SOFT TISSUE,0.92 ± 0.1,0.85 ± 0.18,0.915 ± 0.1,0.874 ± 0.039,0.748 ± 0.081,0.679 ± 0.068,0.679 ± 0.015,0.689 ± 0.049,0.795 ± 0.055,0.875 ± 0.099,0.846 ± 0.11,0.894 ± 0.18,0.886 ± 0.047,0.867 ± 0.15,0.964 ± 0.062,0.358 ± 0.098
CAL51 BREAST,1.03 ± 0.062,0.941 ± 0.066,1.07 ± 0.031,1.04 ± 0.02,1.04 ± 0.021,1.08 ± 0.086,1.09 ± 0.017,0.959 ± 0.048,0.949 ± 0.068,1.01 ± 0.081,0.992 ± 0.018,0.996 ± 0.063,0.967 ± 0.044,1 ± 0.046,0.48 ± 0.036,0.0988 ± 0.0065
CAL72 BONE,1.04 ± 0.13,1.06 ± 0.12,1.06 ± 0.1,1.05 ± 0.12,1.11 ± 0.14,1.06 ± 0.13,1.08 ± 0.12,1.06 ± 0.17,1.03 ± 0.092,0.999 ± 0.14,1.01 ± 0.11,1.02 ± 0.13,1.05 ± 0.099,1.02 ± 0.18,0.848 ± 0.12,0.447 ± 0.2
CAL120 BREAST,0.984 ± 0.03,0.9688 ± 0.0083,0.981 ± 0.051,0.984 ± 0.061,0.997 ± 0.018,0.998 ± 0.038,0.992 ± 0.012,0.773 ± 0.11,0.915 ± 0.051,0.912 ± 0.083,0.944 ± 0.076,0.927 ± 0.029,0.931 ± 0.071,0.933 ± 0.021,0.676 ± 0.025,0.316 ± 0.03
CASKI CERVIX,0.912 ± 0.075,0.896 ± 0.038,0.9707 ± 0.0083,0.937 ± 0.021,1.08 ± 0.015,1.06 ± 0.094,0.931 ± 0.092,0.715 ± 0.026,0.889 ± 0.044,0.923 ± 0.029,0.899 ± 0.078,0.939 ± 0.063,1.02 ± 0.057,1.05 ± 0.052,0.683 ± 0.1,0.0593 ± 0.004
CHLA90 AUTONOMIC GANGLIA,0.98 ± 0.054,0.955 ± 0.068,0.961 ± 0.043,0.99 ± 0.091,1.02 ± 0.064,1.01 ± 0.12,0.979 ± 0.093,0.997 ± 0.13,0.969 ± 0.059,0.89 ± 0.077,0.879 ± 0.074,0.888 ± 0.022,0.997 ± 0.047,0.998 ± 0.029,0.896 ± 0.08,0.663 ± 0.005
CME SYNOVIAL,1.33 ± 0.17,1.37 ± 0.049,1.42 ± 0.099,1.37 ± 0.11,1.27 ± 0.23,1.42 ± 0.14,1.21 ± 0.099,1.23 ± 0.07,1.17 ± 0.12,1.01 ± 0.079,1.19 ± 0.026,1.08 ± 0.014,1.26 ± 0.11,1.16 ± 0.15,0.711 ± 0.14,0.38 ± 0.027
COLO320DM LARGE INTESTINE,1.09 ± 0.057,1.13 ± 0.085,1.04 ± 0.14,1.03 ± 0.12,1.19 ± 0.083,1.12 ± 0.03,1.21 ± 0.13,1.13 ± 0.055,1.14 ± 0.11,1.11 ± 0.12,1.08 ± 0.15,1.08 ± 0.078,1.09 ± 0.15,0.965 ± 0.056,0.3693 ± 0.0033,0.266 ± 0.0093
DU4475 BREAST,0.935 ± 0.13,0.973 ± 0.042,0.943 ± 0.13,0.865 ± 0.1,0.797 ± 0.13,0.715 ± 0.012,0.373 ± 0.067,0.203 ± 0.047,0.835 ± 0.14,0.807 ± 0.045,0.849 ± 0.11,0.901 ± 0.23,0.782 ± 0.17,0.746 ± 0.066,0.452 ± 0.12,0.114 ± 0.044
H23 LUNG,1.01 ± 0.043,1.06 ± 0.077,1.05 ± 0.066,1.06 ± 0.017,1.07 ± 0.067,1.1 ± 0.087,1.08 ± 0.065,1.048 ± 0.004,0.97 ± 0.025,0.949 ± 0.017,1 ± 0.035,0.963 ± 0.039,0.975 ± 0.06,1.03 ± 0.021,0.749 ± 0.019,0.265 ± 0.004
HCC78 LUNG,0.9693 ± 0.0035,0.955 ± 0.076,0.969 ± 0.1,1.08 ± 0.15,1.04 ± 0.062,0.92 ± 0.2,0.967 ± 0.19,0.939 ± 0.2,0.781 ± 0.22,0.786 ± 0.076,0.866 ± 0.094,1.02 ± 0.24,0.827 ± 0.14,0.759 ± 0.14,0.298 ± 0.087,0.0893 ± 0.036
HCC202 BREAST,1.36 ± 0.084,1.17 ± 0.2,1.07 ± 0.069,1.43 ± 0.17,1.1 ± 0.16,1.31 ± 0.17,1.15 ± 0.5,0.965 ± 0.018,1.1 ± 0.39,1.22 ± 0.36,1.12 ± 0.29,1.02 ± 0.19,1.23 ± 0.062,1.04 ± 0.27,0.713 ± 0.32,0.564 ± 0.23
